In paper PMC10041525, “New Dual Inhibitors of Bacterial Topoisomerases with Broad-Spectrum Antibacterial Activity and In Vivo Efficacy against Vancomycin-Intermediate Staphylococcus aureus” (Journal of Medicinal Chemistry, 2023):
Where two headings read alike, the source gives them in different places.

Tests used:
Format in all cases: cell-based
[1] = test system: 100 A. baumannii strains (50 MDR, 50 non-MDR); assay: MIC broth microdilution at IHMA Europe, panel of 100 strains; settings: for MIC / MIC50 / MIC90: Acinetobacter baumannii; for MIC50: read-out: MIC 50; for MIC90: read-out: MIC 90
E. faecalis ATCC 29212 = assay: IHMA QC MIC
From the text: (§1) Supplement jm2c01905_si_004.xlsx, sheet "QC" | column: MIC [µg/mL]

H. influenzae ATCC 49766 = assay: IHMA QC MIC
From the text: as §1

S. pneumoniae ATCC 49619 = assay: IHMA QC MIC
From the text: as §1

H. influenzae ATCC 49247 = assay: IHMA QC MIC; settings: Haemophilus influenzae, read-out: MIC
From the text: as §1

E. coli ATCC 25922 = assay: IHMA QC MIC; settings: Escherichia coli
P. aeruginosa ATCC 27853 = assay: IHMA QC MIC; settings: for MIC: Pseudomonas aeruginosa

C[C@@H](O)[C@H]1C(=O)N2C(C(=O)O)=C(SCCNC=N)C[C@H]12 [Imipenem, imipenem]
2 µg/mL: MIC (P. aeruginosa ATCC 27853; ATCC27853, QC strain P. aeruginosa ATCC 27853, test date 2021-11-11, read-out: MIC) | MIC (P. aeruginosa ATCC 27853; ATCC27853, QC strain P. aeruginosa ATCC 27853, test date 2021-11-26, read-out: MIC) | MIC (P. aeruginosa ATCC 27853; ATCC27853, read-out: MIC (QC, repeated tests))
0.03 µg/mL: MIC (S. pneumoniae ATCC 49619; QC strain S. pneumoniae ATCC 49619, test date 2021-11-26) | MIC (S. pneumoniae ATCC 49619; Streptococcus pneumoniae, ATCC49619, QC strain S. pneumoniae ATCC 49619, test date 2021-11-11, read-out: MIC)
0%: Percentage I ([1]; MDR n = 50) | Percentage S ([1]; MDR n = 50) | Percentage I ([1]; all n = 100, CLSI breakpoints) | Percentage I ([1]; non-MDR n = 50) | Percentage R ([1]; non-MDR n = 50)
> 16 µg/mL: MIC ([1]; A. baumannii IHMA 2156634, Turkey 2020, MDR, read-out: MIC) | MIC ([1]; A. baumannii IHMA 2156709, Turkey 2020, MDR, read-out: MIC) | MIC ([1]; A. baumannii IHMA 2177232, Lithuania 2020, MDR, read-out: MIC) | MIC ([1]; A. baumannii IHMA 2177489, Lithuania 2020, MDR, read-out: MIC) | MIC ([1]; A. baumannii IHMA 2181370, Morocco 2020, MDR, read-out: MIC) | MIC ([1]; A. baumannii IHMA 2193375, Venezuela 2020, MDR, read-out: MIC) | MIC ([1]; A. baumannii IHMA 2193607, Venezuela 2020, MDR, read-out: MIC) | MIC ([1]; A. baumannii IHMA 2195460, Italy 2020, MDR, read-out: MIC) | MIC ([1]; A. baumannii IHMA 2196914, South Africa 2020, MDR, read-out: MIC) | MIC ([1]; A. baumannii IHMA 2196959, South Africa 2020, MDR, read-out: MIC) | MIC ([1]; A. baumannii IHMA 2203763, Spain 2020, MDR, read-out: MIC) | MIC ([1]; A. baumannii IHMA 2205144, Korea, South 2020, MDR, read-out: MIC) | MIC ([1]; A. baumannii IHMA 2206459, Taiwan 2020, MDR, read-out: MIC) | MIC ([1]; A. baumannii IHMA 2216586, Taiwan 2020, MDR, read-out: MIC) | MIC ([1]; A. baumannii IHMA 2224017, Panama 2020, MDR, read-out: MIC) | MIC ([1]; A. baumannii IHMA 2231797, Greece 2020, MDR, read-out: MIC) | MIC ([1]; A. baumannii IHMA 2233099, Guatemala 2020, MDR, read-out: MIC) | MIC ([1]; A. baumannii IHMA 2233430, Kazakhstan 2020, MDR, read-out: MIC) | MIC ([1]; A. baumannii IHMA 2238964, Thailand 2020, MDR, read-out: MIC) | MIC ([1]; A. baumannii IHMA 2261047, Belgium 2020, MDR, read-out: MIC) | MIC ([1]; A. baumannii IHMA 2274234, South Africa 2020, MDR, read-out: MIC) | MIC ([1]; A. baumannii IHMA 2274364, South Africa 2020, MDR, read-out: MIC) | MIC ([1]; A. baumannii IHMA 2275751, Jordan 2020, MDR, read-out: MIC) | MIC ([1]; A. baumannii IHMA 2316205, United States 2020, MDR, read-out: MIC) | MIC ([1]; MDR n = 50, read-out: MAX (maximum MIC; all strains inhibited)) | MIC50 ([1]; MDR n = 50) | MIC90 ([1]; MDR n = 50) | MIC ([1]; all isolates n = 100, read-out: MAX (maximum MIC; all strains inhibited)) | MIC90 ([1]; all isolates n = 100)
16 µg/mL: MIC ([1]; A. baumannii IHMA 2155340, Kenya 2020, MDR, read-out: MIC) | MIC ([1]; A. baumannii IHMA 2180142, Malaysia 2020, MDR, read-out: MIC) | MIC ([1]; A. baumannii IHMA 2183729, Argentina 2020, MDR, read-out: MIC) | MIC ([1]; MDR n = 50, read-out: MIN (minimum MIC))
0.12 µg/mL: MIC (H. influenzae ATCC 49247; ATCC49247, QC strain H. influenzae ATCC 49247, test date 2021-11-26) | MIC (E. coli ATCC 25922; ATCC25922, QC strain E. coli ATCC 25922, test date 2021-11-26, read-out: MIC)
1 µg/mL: MIC (E. faecalis ATCC 29212; Enterococcus faecalis, ATCC29212, QC strain E. faecalis ATCC 29212, test date 2021-11-11, read-out: MIC) | MIC (E. faecalis ATCC 29212; QC strain E. faecalis ATCC 29212, test date 2021-11-26) | MIC (QC, repeated tests) (P. aeruginosa ATCC 27853)
≤ 0.25 µg/mL: MIC ([1]; A. baumannii IHMA 2157614, Australia 2020, Non-MDR, read-out: MIC) | MIC ([1]; A. baumannii IHMA 2178574, Ukraine 2020, Non-MDR, read-out: MIC) | MIC ([1]; A. baumannii IHMA 2180134, Malaysia 2020, Non-MDR, read-out: MIC) | MIC ([1]; A. baumannii IHMA 2183849, Argentina 2020, Non-MDR, read-out: MIC) | MIC ([1]; A. baumannii IHMA 2184382, Japan 2020, Non-MDR, read-out: MIC) | MIC ([1]; A. baumannii IHMA 2193485, Venezuela 2020, Non-MDR, read-out: MIC) | MIC ([1]; A. baumannii IHMA 2206507, Taiwan 2020, Non-MDR, read-out: MIC) | MIC ([1]; A. baumannii IHMA 2212575, Hungary 2020, Non-MDR, read-out: MIC) | MIC ([1]; A. baumannii IHMA 2215307, Hong Kong 2020, Non-MDR, read-out: MIC) | MIC ([1]; A. baumannii IHMA 2223200, Colombia 2020, Non-MDR, read-out: MIC) | MIC ([1]; A. baumannii IHMA 2224303, Panama 2020, Non-MDR, read-out: MIC) | MIC ([1]; A. baumannii IHMA 2233548, Kazakhstan 2020, Non-MDR, read-out: MIC) | MIC ([1]; A. baumannii IHMA 2239052, Thailand 2020, Non-MDR, read-out: MIC) | MIC ([1]; A. baumannii IHMA 2261633, Canada 2020, Non-MDR, read-out: MIC) | MIC ([1]; A. baumannii IHMA 2275237, Chile 2020, Non-MDR, read-out: MIC) | MIC ([1]; all isolates n = 100, read-out: MIN (minimum MIC)) | MIC50 ([1]; non-MDR n = 50) | MIC90 ([1]; non-MDR n = 50) | MIC ([1]; non-MDR n = 50, read-out: MIN (minimum MIC)) | MIC (E. coli ATCC 25922; ATCC25922, read-out: MIC (QC, repeated tests))
100%: Percentage R ([1]; MDR n = 50) | Percentage S ([1]; non-MDR n = 50)
0.25 µg/mL: MIC (H. influenzae ATCC 49247; ATCC49247, QC strain H. influenzae ATCC 49247, test date 2021-11-11)
0.5 µg/mL: MIC50 ([1]; all isolates n = 100) | MIC ([1]; non-MDR n = 50, read-out: MAX (maximum MIC)) | MIC (H. influenzae ATCC 49766; Haemophilus influenzae, ATCC49766, QC strain H. influenzae ATCC 49766, test date 2021-11-11, read-out: MIC) | MIC (H. influenzae ATCC 49766; QC strain H. influenzae ATCC 49766, test date 2021-11-26)
50%: Percentage R ([1]; all n = 100, CLSI breakpoints) | Percentage S ([1]; all n = 100, CLSI breakpoints)
